No end group written: not given here.
Assays:
Type in all cases: biochemical
[1] = biological target: Superoxide radical; assay: Superoxide dismutase (SOD) activity, xanthine oxidase/NBT assay; details: for SOD activity (inhibition of NBT reduction): xanthine oxidase assay, pH 10.2, 1.2 µM EDTA
Description: The SOD activity of copper complexes of the tetrapeptide L-Asp L-Ala L-His L-Lys [SEQ ID NO:1] was assayed. Superoxide radicals were produced using the xanthine oxidase assay of Beauchamp and Fridovich, Anal. Biochem., 44:276-287 (1971). Xanthine oxidase converts xanthine into uric acid, with oxygen acting as an electron acceptor. This causes superoxide radical to be produced. Superoxide radical is able to reduce nitro blue tetrazolium (NBT). Reduced NBT has a λmax of 560 nm. It is known that copper inhibits xanthine oxidase activity (Konstantinova et al., Free Rad. Res. Comms., 12-13:215-220 (1991)), so all experiments containing copper also contained ethylenediaminetetracetic acid (EDTA), a known copper chelator.
To perform the assay for SOD activity, 0.1 mM xanthine (Sigma Chemical Co.), 25 µM NBT (Sigma Chemical Co.), 50 mM sodium carbonate, and 1.2 µM EDTA (Sigma Chemical Co.), were mixed in a cuvette (all final concentrations, final pH 10.2). The reaction was started by the addition of various amounts of a tetrapeptide-copper complex (tetrapeptide/copper ratios of 1:1 and 2:1) and 20 nM xanthine oxidase (Sigma Chemical Co.). The tetrapeptide-copper complex was prepared by mixing the tetrapeptide and copper (as CuCl2) and allowing the mixture to incubate for 15 minutes at room temperature immediately before addition to the cuvette. The samples were read at time 0 and every 60 seconds for five minutes at 560 nm.

[2] = biological target: T1, xanthine oxidase (Bos taurus, UniProt P80457); assay: Uric acid production at 295 nm (check for interference with xanthine oxidase activity); details: concentration of 600 nM; data not shown
T1 construct: purchased Sigma Chemical Co
Description: Athar et al., Biochem. Mol. Biol. Int., 39(4):813-821 (1996); Ciuffi et al., Pharmacol Res., 38(4):279-287 (1998). This assay is similar to the SOD assay, except that NBT is not present. Instead, uric acid is assayed at 295 nm every 60 seconds for 5 minutes. […] Since superoxide is converted to hydrogen peroxide by the complex, this could help to explain why it is not effective at preventing hydroxyl radical production.

[3] = tested on: Superoxide radical; assay: Superoxide radical production, NBT reduction with copper and ascorbate; details: 37°C, read at 560 nm at 5, 15, 30 and 60 minutes, maximum decreased for the 1:1 complex
Description: Superoxide radical production was measured in solutions containing the 1:1 or 2:1 tetrapeptide-copper complexes. The assay combined techniques from the TBA assay and the xanthine oxidase assay. NBT was added to all test tubes in order to quantitate its reduction by superoxide radical. The samples also contained ascorbate and copper and were incubated at 37°C. At 5,15,30 and 60 minutes, the samples were removed from the incubator and read at 560 nm. In the sample containing the 2:1 tetrapeptide-copper complex, NBT reduction increased over time and reached a maximum at 3 0 minutes.

[4] = tested on: hydroxyl radicals; assay: Inhibition of hydroxyl radical production, Cu(II)/ascorbic acid deoxyribose TBA assay (Example 10); details: compound/copper 2:1; for % Inhibition: percent decrease in absorbance compared to buffer alone
Description: The ability of the compounds listed above to inhibit the generation of hydroxyl radicals was tested as described in Gutteridge and Wilkins, Biochim. Biophys. Acta, 759:38-41 (1983). Briefly, Cu(II) and ascorbic acid were mixed causing the generation of hydroxyl radicals. Then, deoxyribose was added, and the hydroxyl radicals, if present, attacked the deoxyribose to produce fragments. […]. Thus, absorbance at 532 nm is a measure of the damage to deoxyribose and, therefore, of hydroxyl radical formation.
To perform the assay, CuCl2 in buffer (20 mM KH2PO4 buffer, pH 7.4) and either one of the test compounds in buffer or buffer alone were added to test tubes (final concentration of CuCl2 was 10µM). The test tubes were incubated for 15 minutes at room temperature. Then, 0.5 mM ascorbic acid in buffer and 1.9 mM 2-deoxy-D-ribose in buffer were added to each test tube, and the test tubes were incubated for 1 hour at 37°C. Finally, 1 ml of 1% (w/v) TBA in 50 mM NaOH and 1 ml of concentrated acetic acid were added to each test tube, and the test tubes were incubated in boiling water for 15 minutes. After the test tubes had cooled for 15 minutes, the absorbance at 532 nm was read.

T1 sequence (P80457 whole entry): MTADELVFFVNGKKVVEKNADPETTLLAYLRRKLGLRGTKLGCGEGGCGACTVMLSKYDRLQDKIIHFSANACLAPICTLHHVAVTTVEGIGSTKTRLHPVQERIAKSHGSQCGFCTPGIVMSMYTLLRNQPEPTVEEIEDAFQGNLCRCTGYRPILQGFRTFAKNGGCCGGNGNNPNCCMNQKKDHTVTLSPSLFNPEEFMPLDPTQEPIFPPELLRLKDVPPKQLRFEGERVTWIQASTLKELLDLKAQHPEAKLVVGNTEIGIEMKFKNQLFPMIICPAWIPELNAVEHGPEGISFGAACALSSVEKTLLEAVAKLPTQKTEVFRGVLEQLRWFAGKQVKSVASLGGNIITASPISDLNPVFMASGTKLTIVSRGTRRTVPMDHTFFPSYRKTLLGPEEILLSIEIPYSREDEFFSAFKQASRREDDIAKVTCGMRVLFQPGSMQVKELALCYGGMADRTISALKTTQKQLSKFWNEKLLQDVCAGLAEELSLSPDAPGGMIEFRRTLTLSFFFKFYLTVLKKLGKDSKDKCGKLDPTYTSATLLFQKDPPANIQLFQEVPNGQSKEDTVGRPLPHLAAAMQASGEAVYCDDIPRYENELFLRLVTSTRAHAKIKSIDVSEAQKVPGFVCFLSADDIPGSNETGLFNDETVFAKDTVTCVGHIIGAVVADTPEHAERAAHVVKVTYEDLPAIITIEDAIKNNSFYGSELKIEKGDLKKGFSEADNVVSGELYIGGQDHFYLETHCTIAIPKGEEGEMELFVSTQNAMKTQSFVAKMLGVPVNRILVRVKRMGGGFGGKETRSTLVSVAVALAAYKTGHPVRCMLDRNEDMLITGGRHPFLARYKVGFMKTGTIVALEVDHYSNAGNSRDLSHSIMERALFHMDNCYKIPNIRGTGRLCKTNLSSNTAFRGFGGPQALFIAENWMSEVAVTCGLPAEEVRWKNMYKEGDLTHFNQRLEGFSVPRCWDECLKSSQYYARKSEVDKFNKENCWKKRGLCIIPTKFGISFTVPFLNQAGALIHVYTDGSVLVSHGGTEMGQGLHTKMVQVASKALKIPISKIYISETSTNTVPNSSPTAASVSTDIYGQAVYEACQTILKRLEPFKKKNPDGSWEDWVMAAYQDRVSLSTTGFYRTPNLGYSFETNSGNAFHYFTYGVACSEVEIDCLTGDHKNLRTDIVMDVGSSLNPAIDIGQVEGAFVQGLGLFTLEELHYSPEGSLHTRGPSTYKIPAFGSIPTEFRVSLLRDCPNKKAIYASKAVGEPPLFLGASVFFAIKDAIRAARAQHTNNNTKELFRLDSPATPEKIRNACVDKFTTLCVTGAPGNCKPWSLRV

1:1 tetrapeptide-copper complex: complex of L-Asp L-Ala L-His L-Lys and copper (as CuCl2), tetrapeptide/copper ratio 1:1 (DAHK; also: copper complex, peptide:Cu 1:1 (as CuCl2); UniProt P02768 25-28, looked up, fragment)
times less effective than SOD itself, based on IC50 values ([1]; tetrapeptide/copper ratio 1:1, IC50 = amount that gives 50% inhibition): about 500 times | SOD activity (inhibition of NBT reduction) [1]: true SOD activity | SOD activity (inhibition of NBT reduction) ([1]; listed as complex of the tetrapeptide with copper at a ratio of 1:1): have SOD activity | inhibition of uric acid production [2]: 11% | time at which NBT reduction reached a maximum [3]: 60 min

2:1 tetrapeptide-copper complex: complex of L-Asp L-Ala L-His L-Lys and copper (as CuCl2), tetrapeptide/copper ratio 2:1 (DAHK; also: copper complex, peptide:Cu 2:1 (as CuCl2); UniProt P02768 25-28, looked up, fragment)
SOD activity (inhibition of NBT reduction) [1]: no SOD activity

N[C@@H](Cc1c[nH]cn1)C(=O)O [Histidine, histidine]
% Inhibition [4]: about 20% | % Inhibition ([4]; listed as Histindine): 20.3% | Absorbance at 532 nm ([4]; second absorbance column (copper only 0.954)): 0.760
